One molecule from US20210128740A1, “HDAC INHIBITORS-BASED ANTIBODY DRUG CONJUGATES (ADCs) AND USE IN THERAPY” (ALFASIGMA S.P.A., priority 2017, published 2021) can be followed below.

Holding throughout (set-up): species or system mice
Assay [1] concerns NCI-H1975 non-small cell lung carcinoma. Nature of the assay: In vivo antitumor effect against s.c. NCI-H1975 non-small cell lung cancer. The settings on record: 120 mg/kg, ip, q4dx4.
Description: Nude Nu/Nu female mice (from Charles River, Italy) were given a single subcutaneous injection of 5×10^6 NCI-H1975 non-small cell lung carcinoma cells suspended in 100 μL cell culture medium RPMI supplemented with 10% FBS. […] Vehicle group was treated by PBS. Tumor growth was measured with a caliper and tumor volume was calculated using the formula length (mm)×width 2 (mm)/2. The tumor inhibition was calculated according to the equation: % TVI=100−(mean tumor volume of treated group/mean tumor volume of control group)×100. Toxicity was evaluated on the basis of the body weight reduction.
Animals were euthanized by CO2 inhalation when the tumors reached a volume around 1200 mm^3.
Assay [2] deals with CAPAN-1 orthotopic pancreatic tumor. In words: In vivo antitumor effect against orthotopic CAPAN-1 pancreas cancer. The settings on record: 200 mg/kg, ip, q4dx4. An excerpt:
Capan-1 (1×10^6) cells were directly injected into pancreas of experimental groups.

Assay [3] deals with A549 non-small cell lung carcinoma. In words: In vivo antitumor effect of combination of Cetuximab with ST7612AA1 vs ADC against s.c. A549 lung cancer (Example 31). How it is done: The human A549 lung carcinoma cells were cultured in their appropriate complete medium. On the day of tumor injection, cells were harvested from subconfluent cultures by trypsinization, washed with PBS, suspended in PBS and subcutaneously injected into the right flank of immunodeficient mice (5×10^6/100 μL). Treatments started when tumor size was around 80 mm^3 and mice were randomized into the experimental groups (10 mice/group): […]

In the case of `CC(=O)SCCCCC[C@H](NC(=O)[C@H]1CCC(=O)N1)C(=O)Nc1ccccc1` [ST7612AA1], the “Antitumor activity” value in assay [1] is “completely inactive”. The same molecule came in with a Tumor growth inhibition in assay [2] of 32%. In assay [3] (0.1 mg/kg, ip, q4dx4), the “Antitumor activity” value is recorded as “not effective”; the “TVI at day 50” value is given as 0, P = 0.95; the “TVI at day 56” value is recorded as 0, P = 0.88. Also, in assay [3] (40 mg/kg, po, qdx5/wx3w), the “TVI at day 50” value is reported as 33, P = 0.007 and the “TVI at day 56” value is reported as 35, P = 0.0009.
